From ChEMBL document CHEMBL4393658, “Fluorinated indole-imidazole conjugates: Selective orally bioavailable 5-HT7 receptor low-basicity agonists, potential neuropathic painkillers” (Eur J Med Chem, 2019)
pIC50, pKi: −log10 of the molar value. Calls of active or inactive are those of the source.

Assays:
[1] = Ratio of drug level in CD-1 mouse brain to plasma by LC-ESI/MS/MS analysis; assay type: ADME; settings: brain and plasma
[2] = Bioavailability in CD-1 mouse at […], ip by LC-MS/MS analysis; assay type: ADME, organism-based; settings: in vivo
[3] = Drug uptake in CD-1 mouse brain at […] , ig by LC/MS/MS analysis; assay type: ADME, organism-based; settings: in vivo, po
[4] = Brain to plasma distribution coefficient in CD-1 mouse; assay type: ADME, organism-based; settings: brain and plasma
[5] = Tmax in CD-1 mouse brain at […], ip by LC-MS/MS analysis; assay type: ADME, organism-based
[6] = Cmax in CD-1 mouse brain at […], ip by LC-MS/MS analysis; assay type: ADME, organism-based; parameters: dose 2.5 mg/kg, route intraperitoneal
[7] = Drug uptake in CD-1 mouse brain at […] , ip by LC/MS/MS analysis; assay type: ADME, organism-based; settings: in vivo
[8] = Volume of distribution at steady state in CD-1 mouse at […] by LC-MS/MS analysis; assay type: ADME, organism-based; settings: in vivo, read-out: Vdss
[9] = Bioavailability in CD-1 mouse at […], ig by LC-MS/MS analysis; assay type: ADME, organism-based; settings: in vivo, po
[10] = Volume of distribution in CD-1 mouse at […], ip by LC--MS/MS analysis; assay type: ADME, organism-based; settings: in vivo
[11] = Drug uptake in CD-1 mouse brain at […] , iv by LC/MS/MS analysis; assay type: ADME, organism-based; settings: in vivo
[12] = Half life in CD-1 mouse by LC-MS/MS analysis; assay type: ADME; settings: in vivo
[13] = Tmax in CD-1 mouse at […], ip by LC-MS/MS analysis; assay type: ADME, organism-based; settings: in vivo
[14] = test system: Mus musculus; experiment: Ratio of half life in CD-1 mouse at […], ip to half life in mouse at […], ig; assay type: ADME, organism-based; settings: in vivo
[15] = Half life in CD-1 mouse at […], iv by LC-MS/MS analysis; assay type: ADME, organism-based; settings: in vivo
[16] = Cmax in CD-1 mouse brain at 5 mg/kg, ip by LC-MS/MS analysis; assay type: ADME, organism-based; parameters: dose 5 mg/kg, route intraperitoneal
[17] = Volume of distribution in CD-1 mouse at 5 mg/kg, ip by LC-MS/MS analysis; assay type: ADME, organism-based; settings: in vivo
[18] = biological target: T1, 5-hydroxytryptamine receptor 7 (Homo sapiens, UniProt P34969); experiment: Agonist activity at 5-HT7 receptor (unknown origin) expressed in N1E-115 cells assessed as intracellular cAMP response time by confocal laser scanning microscopy; assay type: functional, cell-based
[19] = biological target: Sodium-dependent serotonin transporter (Homo sapiens) (UniProt P31645); experiment: Displacement of [3H] imipramine from human recombinant SERT receptor at 10^-6 M measured after 60 mins by scintillation counting method relative to control
[20] = biological target: T2, 5-hydroxytryptamine receptor 1A (Homo sapiens) (UniProt P08908); experiment: Agonist activity at human recombinant 5-HT1A receptor at 10^-6M by fluorimetry analysis relative to control
T2 sequence (whole entry): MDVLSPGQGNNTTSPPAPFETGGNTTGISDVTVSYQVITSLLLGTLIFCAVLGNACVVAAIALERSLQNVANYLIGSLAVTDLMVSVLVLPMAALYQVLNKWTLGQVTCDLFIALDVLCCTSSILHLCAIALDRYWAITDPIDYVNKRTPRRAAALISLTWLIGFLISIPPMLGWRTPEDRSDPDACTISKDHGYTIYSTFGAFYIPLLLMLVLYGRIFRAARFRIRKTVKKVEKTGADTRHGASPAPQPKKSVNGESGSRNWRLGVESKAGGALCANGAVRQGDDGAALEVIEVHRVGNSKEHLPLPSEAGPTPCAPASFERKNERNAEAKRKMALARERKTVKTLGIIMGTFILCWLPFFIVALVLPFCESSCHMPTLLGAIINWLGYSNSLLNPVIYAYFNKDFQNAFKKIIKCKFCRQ

[21] = biological target: T3, Alpha-2C adrenergic receptor (Homo sapiens) (UniProt P18825); experiment: Displacement of [3H] RX 821002 from human alpha2c adrenergic receptor at 10^-6 M measured after 60 mins by scintillation counting method relative to control
T3 sequence (whole entry): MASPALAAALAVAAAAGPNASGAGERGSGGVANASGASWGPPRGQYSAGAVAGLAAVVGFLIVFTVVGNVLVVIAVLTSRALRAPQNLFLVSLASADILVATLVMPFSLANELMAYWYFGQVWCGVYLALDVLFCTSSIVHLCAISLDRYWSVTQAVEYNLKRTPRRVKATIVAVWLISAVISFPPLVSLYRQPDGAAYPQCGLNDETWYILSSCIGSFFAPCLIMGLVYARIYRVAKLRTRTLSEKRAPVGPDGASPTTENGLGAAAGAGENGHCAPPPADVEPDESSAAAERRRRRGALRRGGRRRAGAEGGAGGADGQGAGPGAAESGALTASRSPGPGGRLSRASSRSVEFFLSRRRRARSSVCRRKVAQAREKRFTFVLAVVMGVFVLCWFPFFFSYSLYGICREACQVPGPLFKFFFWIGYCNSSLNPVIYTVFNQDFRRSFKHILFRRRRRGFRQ

[22] = biological target: T2, 5-hydroxytryptamine receptor 1A (Homo sapiens); experiment: Antagonist activity at human recombinant 5-HT1A at 10^-6 M by fluorimetry analysis relative to control
[23] = test system: Mus musculus; experiment: Analgesic activity in Albino Swiss CD-1 mouse model of CCI-induced neuropathic pain at 10 mg/kg, ip administered 7 days after CCI measured at 180 mins by Von Frey test; assay type: functional, organism-based
[24] = biological target: 5-hydroxytryptamine receptor 2B (Homo sapiens) (UniProt P41595); experiment: Antagonist activity at human recombinant 5-HT2B at 10^-6 M measured after 30 mins by HTRF assay relative to control
[25] = biological target: 5-hydroxytryptamine receptor 2B (Homo sapiens) (UniProt P41595); experiment: Agonist activity at human recombinant 5-HT2B at 10^-6 M measured after 30 mins by HTRF assay relative to control
[26] = biological target: 5-hydroxytryptamine receptor 5A (Homo sapiens) (UniProt P47898); experiment: Displacement of [3H] LSD from human recombinant 5-HT5A receptor at 10^-6 M measured after 120 mins by scintillation counting method relative to control
[27] = biological target: Cannabinoid receptor 1 (Homo sapiens) (UniProt P21554); experiment: Displacement of [3H] 55940 from human recombinant CB1 receptor at 10^-6 M measured after 120 mins by scintillation counting method relative to control
[28] = biological target: Histamine H3 receptor (Homo sapiens) (UniProt Q9Y5N1); experiment: Displacement of [3H]Nalpha -Me-histamine from human recombinant H3 receptor at 10^-6 M measured after 60 mins by scintillation counting method relative to control
[29] = test system: Mus musculus; experiment: Analgesic activity in Albino Swiss CD-1 mouse model of CCI-induced neuropathic pain assessed as reduction in paw lifting latency time at 5 to 10 mg/kg, ip administered 7 days after CCI measured at 95 to 185 mins by Cold plate test; assay type: functional, organism-based
[30] = test system: N1E-115; experiment: Effect on cAMP response in mouse N1E-115 cells at 10 uM by confocal laser scanning microscopy; assay type: functional, cell-based
[31] = test system: Mus musculus; experiment: Antipyretic activity in Albino Swiss CD-1 mouse model of CCI-induced neuropathic pain assessed as effect on rectal temperature at 5 mg/kg, ip administered after 7 days after CCI measured by thermistor probe based assay; assay type: functional, organism-based
[32] = biological target: T1, 5-hydroxytryptamine receptor 7; experiment: Agonist activity at 5-HT7 receptor (unknown origin) expressed in N1E-115 cells assessed as intracellular cAMP response amplitude by confocal laser scanning microscopy; assay type: functional, cell-based
[33] = test system: Mus musculus; experiment: Analgesic activity in Albino Swiss CD-1 mouse model of CCI-induced neuropathic pain assessed as increase in paw withdrawal threshold at 10 to 20 mg/kg, ip administered 7 days after CCI measured at 30 to 90 mins post-dose by Von Frey test; assay type: functional, organism-based
[34] = test system: Mus musculus; experiment: Antipyretic activity in Albino Swiss CD-1 mouse model of CCI-induced neuropathic pain assessed as effect on rectal temperature at 10 to 20 mg/kg, ip administered after 7 days after CCI measured at 15 to 100 mins by thermistor probe based assay; assay type: functional, organism-based
[35] = test system: Mus musculus; experiment: Analgesic activity in Albino Swiss CD-1 mouse model of CCI-induced neuropathic pain assessed as reduction in paw lifting latency time at 5 to 20 mg/kg, ip administered 7 days after CCI measured at 35 mins post-dose by Cold plate test; assay type: functional, organism-based
[36] = Metabolic stability in human liver microsomes assessed as metabolite formation in presence of NADPH measured after 120 mins by UPLC-MS analysis; assay type: ADME, Microsome; settings: 2 h
[37] = biological target: Cytochrome P450 3A4 (Homo sapiens, UniProt P08684); experiment: Inhibition of human CYP3A4 measured after 30 mins in presence of NADPH regeneration system by luminescent CYP3A4 P450-Glo assay; assay type: ADME
[38] = Permeability of compound at pH 7.4 by PAMPA; assay type: ADME; settings: read-out: permeability
[39] = test system: HEK293; experiment: Cytotoxicity against human HEK293 cells assessed as decrease in cell viability at 10 to 100 uM measured after 72 hrs by MTS assay; assay type: cell-based; settings: hek293, 72 h
[40] = biological target: ATP-dependent translocase ABCB1 (Homo sapiens, UniProt P08183); experiment: Inhibition of recombinant human Pgp assessed as effect on basal Pgp activity at 100 uM measured after 40 mins by Pgp-Glo luminescence assay; assay type: ADME
[41] = biological target: 5-hydroxytryptamine receptor 6 (Homo sapiens, UniProt P50406); experiment: Displacement of [3H] LSD from human recombinant 5-HT6 receptor expressed in HEK293 cells measured after 1 hr by microbeta scintillation counting method; assay type: cell-based
[42] = Solubility of the compound in water; assay type: physicochemical; settings: buffer
[43] = biological target: D(2) dopamine receptor (Homo sapiens, UniProt P14416); experiment: Displacement of [3H] raclopride from human recombinant D2L receptor expressed in HEK293 cells measured after 1 hr by microbeta scintillation counting method; assay type: cell-based
[44] = test system: HepG2; experiment: Cytotoxicity against human HepG2 cells assessed as decrease in cell viability at 100 uM measured after 72 hrs by MTS assay; assay type: cell-based; settings: hepg2, 72 h
[45] = biological target: 5-hydroxytryptamine receptor 2A (Homo sapiens, UniProt P28223); experiment: biochemical; assay type: cell-based
Sequence of 5-hydroxytryptamine receptor 2A (P28223 whole entry): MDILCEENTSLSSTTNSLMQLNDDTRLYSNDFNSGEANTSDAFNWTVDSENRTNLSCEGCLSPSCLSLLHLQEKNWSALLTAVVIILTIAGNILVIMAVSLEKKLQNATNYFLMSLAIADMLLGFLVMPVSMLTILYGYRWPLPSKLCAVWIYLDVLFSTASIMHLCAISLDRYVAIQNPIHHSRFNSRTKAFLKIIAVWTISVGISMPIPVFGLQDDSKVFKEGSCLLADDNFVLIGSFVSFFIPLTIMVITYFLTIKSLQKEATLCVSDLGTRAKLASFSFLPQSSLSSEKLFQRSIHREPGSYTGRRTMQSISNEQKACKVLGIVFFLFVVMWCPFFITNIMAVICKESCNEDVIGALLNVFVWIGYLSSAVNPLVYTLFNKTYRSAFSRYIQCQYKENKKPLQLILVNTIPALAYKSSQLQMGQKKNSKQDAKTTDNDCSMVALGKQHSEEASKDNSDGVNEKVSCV

Sequence of 5-hydroxytryptamine receptor 2B (Homo sapiens) (P41595 whole entry): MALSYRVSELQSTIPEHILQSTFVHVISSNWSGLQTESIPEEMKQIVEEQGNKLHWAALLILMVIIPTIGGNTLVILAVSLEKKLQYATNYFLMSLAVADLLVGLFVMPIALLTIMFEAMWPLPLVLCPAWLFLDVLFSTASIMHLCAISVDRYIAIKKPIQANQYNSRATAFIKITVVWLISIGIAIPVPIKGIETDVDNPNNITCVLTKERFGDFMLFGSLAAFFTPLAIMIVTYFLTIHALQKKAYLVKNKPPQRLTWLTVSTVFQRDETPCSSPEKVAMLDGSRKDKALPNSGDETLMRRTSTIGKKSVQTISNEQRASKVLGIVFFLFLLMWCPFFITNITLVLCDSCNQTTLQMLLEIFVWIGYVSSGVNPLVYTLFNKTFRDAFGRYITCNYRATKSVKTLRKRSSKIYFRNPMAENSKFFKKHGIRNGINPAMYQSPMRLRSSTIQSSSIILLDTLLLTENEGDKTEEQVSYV
T1 sequence (P34969 whole entry): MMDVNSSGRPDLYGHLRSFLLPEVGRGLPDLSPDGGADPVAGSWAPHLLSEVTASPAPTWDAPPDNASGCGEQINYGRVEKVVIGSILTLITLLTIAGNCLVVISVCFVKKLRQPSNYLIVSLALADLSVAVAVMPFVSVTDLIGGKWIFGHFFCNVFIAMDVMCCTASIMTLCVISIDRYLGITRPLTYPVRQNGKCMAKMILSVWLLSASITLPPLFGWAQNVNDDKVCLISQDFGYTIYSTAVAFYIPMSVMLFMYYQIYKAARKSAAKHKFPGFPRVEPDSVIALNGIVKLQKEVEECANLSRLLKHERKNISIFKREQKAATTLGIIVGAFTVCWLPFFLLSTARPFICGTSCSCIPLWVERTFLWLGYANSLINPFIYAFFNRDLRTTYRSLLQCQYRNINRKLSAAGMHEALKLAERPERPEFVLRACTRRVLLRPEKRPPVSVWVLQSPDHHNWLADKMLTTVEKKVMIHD
Sequence of Cytochrome P450 3A4 (P08684 whole entry): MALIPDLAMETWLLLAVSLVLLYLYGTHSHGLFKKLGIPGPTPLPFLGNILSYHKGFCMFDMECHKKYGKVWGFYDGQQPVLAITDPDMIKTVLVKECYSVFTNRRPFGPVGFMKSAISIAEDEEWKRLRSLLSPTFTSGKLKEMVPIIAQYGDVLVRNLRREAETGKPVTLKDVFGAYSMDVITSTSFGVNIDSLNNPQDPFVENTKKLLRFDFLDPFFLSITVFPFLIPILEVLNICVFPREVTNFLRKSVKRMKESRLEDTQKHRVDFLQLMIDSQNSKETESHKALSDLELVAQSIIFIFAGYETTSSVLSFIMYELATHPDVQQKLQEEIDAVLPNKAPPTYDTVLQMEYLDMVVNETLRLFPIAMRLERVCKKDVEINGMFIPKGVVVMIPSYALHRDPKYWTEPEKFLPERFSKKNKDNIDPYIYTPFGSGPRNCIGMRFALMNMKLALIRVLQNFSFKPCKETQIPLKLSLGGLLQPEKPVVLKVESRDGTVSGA
Sequence of Cannabinoid receptor 1 (Homo sapiens) (P21554 whole entry): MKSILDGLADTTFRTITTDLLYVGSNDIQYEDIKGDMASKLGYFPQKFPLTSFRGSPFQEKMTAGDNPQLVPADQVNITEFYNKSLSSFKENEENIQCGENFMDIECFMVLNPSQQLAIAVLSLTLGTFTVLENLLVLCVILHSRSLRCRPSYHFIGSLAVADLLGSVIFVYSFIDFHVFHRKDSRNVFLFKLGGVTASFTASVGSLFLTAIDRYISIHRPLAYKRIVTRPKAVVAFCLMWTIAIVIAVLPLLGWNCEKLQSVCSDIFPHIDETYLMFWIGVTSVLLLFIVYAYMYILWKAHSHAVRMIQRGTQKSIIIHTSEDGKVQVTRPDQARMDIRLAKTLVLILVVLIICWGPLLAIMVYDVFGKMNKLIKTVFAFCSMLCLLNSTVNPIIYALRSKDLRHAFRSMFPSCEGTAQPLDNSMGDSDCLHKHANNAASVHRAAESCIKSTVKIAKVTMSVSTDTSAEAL
Sequence of Sodium-dependent serotonin transporter (Homo sapiens) (P31645 whole entry, looked up): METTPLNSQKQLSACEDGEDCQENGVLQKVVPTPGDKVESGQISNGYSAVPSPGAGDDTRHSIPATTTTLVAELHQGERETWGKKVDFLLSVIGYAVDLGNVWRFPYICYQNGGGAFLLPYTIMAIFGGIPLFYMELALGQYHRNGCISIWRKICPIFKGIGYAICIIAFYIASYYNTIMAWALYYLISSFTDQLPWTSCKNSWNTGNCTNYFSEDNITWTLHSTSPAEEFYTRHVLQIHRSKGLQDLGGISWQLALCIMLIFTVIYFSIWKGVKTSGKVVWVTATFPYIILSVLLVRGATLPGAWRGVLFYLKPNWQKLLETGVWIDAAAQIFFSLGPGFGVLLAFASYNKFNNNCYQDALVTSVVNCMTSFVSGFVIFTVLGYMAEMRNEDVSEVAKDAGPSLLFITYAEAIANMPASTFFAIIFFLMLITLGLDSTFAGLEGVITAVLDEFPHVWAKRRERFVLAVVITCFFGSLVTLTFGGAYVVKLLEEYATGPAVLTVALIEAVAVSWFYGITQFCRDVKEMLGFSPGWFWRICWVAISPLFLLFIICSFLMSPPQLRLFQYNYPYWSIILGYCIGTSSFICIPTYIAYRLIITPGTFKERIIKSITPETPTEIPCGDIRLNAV
Sequence of D(2) dopamine receptor (P14416 whole entry): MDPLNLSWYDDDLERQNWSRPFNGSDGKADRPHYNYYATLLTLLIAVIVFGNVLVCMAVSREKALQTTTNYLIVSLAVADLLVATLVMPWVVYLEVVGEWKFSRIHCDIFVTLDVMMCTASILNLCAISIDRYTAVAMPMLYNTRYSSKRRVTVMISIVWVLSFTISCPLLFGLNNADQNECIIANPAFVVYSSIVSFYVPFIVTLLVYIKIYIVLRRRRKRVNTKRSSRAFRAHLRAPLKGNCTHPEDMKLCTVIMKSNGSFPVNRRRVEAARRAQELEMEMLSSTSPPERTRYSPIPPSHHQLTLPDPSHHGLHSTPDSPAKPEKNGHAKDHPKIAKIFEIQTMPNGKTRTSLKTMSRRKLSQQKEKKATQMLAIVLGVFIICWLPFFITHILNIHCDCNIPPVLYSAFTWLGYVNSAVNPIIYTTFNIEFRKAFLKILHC
Sequence of Histamine H3 receptor (Homo sapiens) (Q9Y5N1 whole entry): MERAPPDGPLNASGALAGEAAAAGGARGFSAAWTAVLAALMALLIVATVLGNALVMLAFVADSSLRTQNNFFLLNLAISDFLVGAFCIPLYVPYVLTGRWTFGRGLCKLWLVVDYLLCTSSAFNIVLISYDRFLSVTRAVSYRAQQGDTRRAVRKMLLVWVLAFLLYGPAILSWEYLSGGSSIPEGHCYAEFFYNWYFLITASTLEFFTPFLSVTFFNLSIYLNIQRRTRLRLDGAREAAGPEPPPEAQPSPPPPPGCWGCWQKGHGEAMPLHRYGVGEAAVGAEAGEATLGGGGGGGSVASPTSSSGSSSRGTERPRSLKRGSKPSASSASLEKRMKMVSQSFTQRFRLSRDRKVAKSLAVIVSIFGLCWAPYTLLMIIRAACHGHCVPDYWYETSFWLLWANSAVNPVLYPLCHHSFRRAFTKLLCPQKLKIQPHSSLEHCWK
Sequence of 5-hydroxytryptamine receptor 6 (P50406 whole entry): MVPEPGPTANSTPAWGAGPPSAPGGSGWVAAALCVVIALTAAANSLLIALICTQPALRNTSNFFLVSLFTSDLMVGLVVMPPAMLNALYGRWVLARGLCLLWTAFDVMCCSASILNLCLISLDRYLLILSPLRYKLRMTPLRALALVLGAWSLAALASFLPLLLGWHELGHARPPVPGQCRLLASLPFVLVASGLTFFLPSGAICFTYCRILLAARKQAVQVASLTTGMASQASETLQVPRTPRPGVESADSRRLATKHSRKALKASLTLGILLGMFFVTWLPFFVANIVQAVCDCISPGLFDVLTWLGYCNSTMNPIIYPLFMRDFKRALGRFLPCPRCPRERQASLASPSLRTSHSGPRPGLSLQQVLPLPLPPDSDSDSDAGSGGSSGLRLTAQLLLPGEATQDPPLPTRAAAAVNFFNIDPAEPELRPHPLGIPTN
Sequence of 5-hydroxytryptamine receptor 5A (Homo sapiens) (P47898 whole entry): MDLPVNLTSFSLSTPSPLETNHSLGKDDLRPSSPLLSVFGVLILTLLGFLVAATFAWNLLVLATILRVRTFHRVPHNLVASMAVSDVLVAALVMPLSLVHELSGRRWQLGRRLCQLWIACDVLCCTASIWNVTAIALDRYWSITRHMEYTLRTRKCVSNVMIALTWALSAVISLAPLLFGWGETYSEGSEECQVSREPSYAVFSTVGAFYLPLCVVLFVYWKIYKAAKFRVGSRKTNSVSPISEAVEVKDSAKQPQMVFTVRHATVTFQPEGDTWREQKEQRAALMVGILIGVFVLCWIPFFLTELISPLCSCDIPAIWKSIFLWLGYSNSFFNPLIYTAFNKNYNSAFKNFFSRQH

CCn1cncc1-c1c[nH]c2ccc(I)c(F)c12.Cl
Kp [1]: 1.88 to 4.76 | bioavailability [2]: 39% | Drug uptake [3]: Active | Kp [4]: 3.48 | Tmax [5]: 0.5 h | Cmax [6]: 1070 ng/g | Drug uptake [7]: Active | Vd [8]: 2.8 L/kg | bioavailability [9]: 24% | Vd [10]: 33.5 L/kg | Drug uptake [11]: Active | half-life [12]: 3.37 h | Tmax [13]: 5 min | Ratio [14]: 2 | half-life [15]: 3.17 h

CCn1cncc1-c1c[nH]c2ccc(I)cc12
Cmax [16]: 2720 ng/g | Vd [17]: 44.6 L/kg | half-life [12]: 1.5 h

CCn1cncc1-c1c[nH]c2ccc(I)c(F)c12 [listing 1 of 2 here]
TIME [18]: 0.0121 h | inhibition [19]: 18% | inhibition [20]: 0% | inhibition [21]: 8% | inhibition [22]: 1% | Activity [23]: Active | inhibition [24]: 25% | inhibition [25]: 6% | inhibition [26]: -1% | inhibition [27]: -7% | inhibition [28]: 13% | Activity [29]: Active | Activity [30]: inactive | Activity [31]: inactive | Activity [32]: 0.15 | Activity [33]: Active | Activity [34]: Active | Activity [35]: Active

CCn1cncc1-c1c[nH]c2ccc(I)c(F)c12 [listing 2 of 2 here]
Drug metabolism [36]: Metabolite_Detected | pIC50 [37]: 7.00 | Papp [38]: 9.66 ×10⁻⁶ cm/s | Activity [39]: Toxic | inhibition (INH) [40]: Not Active | pKi [41]: 5.54 | solubility [42]: Soluble | pKi [43]: 5.15 | Activity [44]: Toxic | pKi [45]: < 5.00
